Data published in ChEMBL document CHEMBL5375964, “Identification of Small Molecule Inhibitors and Ligand Directed Degraders of Calcium/Calmodulin Dependent Protein Kinase Kinase 1 and 2 (CaMKK1/2)” (J Med Chem, 2023).
One block for each compound: values may come before it.

How the values were obtained:
[1] = biological target: Calcium/calmodulin-dependent protein kinase kinase 2 (Homo sapiens, UniProt Q96RR4); experiment: Induction of ePL tagged degradation of CaMKK2 (unknown origin) expressed in […] cells incubated for 24 hrs by luminescence based analysis; assay type: cell-based, HEK293T
[2] = biological target: Calcium/calmodulin-dependent protein kinase kinase 1 (Homo sapiens, UniProt Q8N5S9); experiment: Inhibition of CaMKK1 (unknown origin) incubated for 20 mins in presence of kinase tracer 236 by TR-FRET
A-427 = experiment: Antiproliferative activity against human A-427 cells assessed as reduction in cell growth incubated for 48 hrs by CellTiter assay; details: A-427, 48 h
[3] = biological target: Von Hippel-Lindau disease tumor suppressor/Elongin B/Elongin C (Homo sapiens, UniProt P40337); experiment: Binding affinity to N-terminal 6 his tagged VHL (54 to 213 residues)/truncated ElonginC (17 to 122 residues) /full length ElonginB (unknown origin) expressed in Escherichia coli assessed as dissociation constant measured upto 300 secs by SPR analysis
[4] = Tmax in C57BL/6 mouse at 10 mg/kg, po measured upto 72 hrs; assay type: ADME, organism-based; details: in vivo
[5] = Half life in C57BL/6 mouse at 10 mg/kg, po measured upto 72 hrs; assay type: ADME, organism-based; details: in vivo
[6] = AUC (0 to 24 hrs) in C57BL/6 mouse at 10 mg/kg, po measured upto 72 hrs; assay type: ADME, organism-based; set-up: dose 10 mg/kg, time < 72 hrs, route po; details: in vivo
[7] = AUC (0 to 24 hrs) in C57BL/6 mouse at 10 mg/kg, sc measured upto 72 hrs; assay type: ADME, organism-based; set-up: time < 72 hrs, dose 10 mg/kg, route sc; details: in vivo
[8] = Bioavailability in C57BL/6 mouse at 10 mg/kg, sc measured upto 72 hrs; assay type: ADME, organism-based; details: in vivo
[9] = Oral bioavailability in C57BL/6 mouse at 10 mg/kg measured upto 72 hrs; assay type: ADME, organism-based; details: in vivo
[10] = Tmax in C57BL/6 mouse at 10 mg/kg, sc measured upto 72 hrs; assay type: ADME, organism-based; details: in vivo
[11] = Cmax in C57BL/6 mouse at 10 mg/kg, sc measured upto 72 hrs; assay type: ADME, organism-based; set-up: dose 10 mg/kg, time < 72 hrs, route sc; details: in vivo
[12] = Cmax in C57BL/6 mouse at 10 mg/kg, po measured upto 72 hrs; assay type: ADME, organism-based; set-up: time < 72 hrs, dose 10 mg/kg, route po; details: in vivo
[13] = Half life in C57BL/6 mouse at 10 mg/kg, sc measured upto 72 hrs; assay type: ADME, organism-based; details: in vivo
[14] = Plasma protein binding in human; assay type: ADME, cell-free; set-up: dose or concentration left out as unconfirmed; details: route po, read-out: PPB (converted)
[15] = Tmax in Cynomolgus monkey at 3 mg/kg, po or 1 mg/kg, iv measured upto 72 hrs; assay type: ADME, organism-based, Macaca fascicularis; details: in vivo
[16] = Cmax in Cynomolgus monkey at 3 mg/kg, po or 1 mg/kg, iv measured upto 72 hrs; assay type: ADME, organism-based, Macaca fascicularis; set-up: time < 72 hrs, dose 3 mg/kg, route po; details: in vivo
[17] = Half life in Beagle dog at 3 mg/kg, po or 1 mg/kg, iv measured upto 72 hrs; assay type: ADME, organism-based, Canis lupus familiaris; details: in vivo
[18] = Half life in Sprague-Dawley rat at 3 mg/kg, po or 1 mg/kg, iv measured upto 24 hrs; assay type: ADME, organism-based; details: in vivo
[19] = Cmax in Beagle dog at 3 mg/kg, po or 1 mg/kg, iv measured upto 72 hrs; assay type: ADME, organism-based, Canis lupus familiaris; set-up: time < 72 hrs, dose 3 mg/kg, route po; details: in vivo
[20] = Bioavailability in Beagle dog at 3 mg/kg, po or 1 mg/kg, iv measured upto 72 hrs; assay type: ADME, organism-based, Canis lupus familiaris; details: in vivo
[21] = Volume of distribution at steady state in Sprague-Dawley rat at 3 mg/kg, po or 1 mg/kg, iv measured upto 24 hrs; assay type: ADME, organism-based; details: in vivo
[22] = AUC (0 to 24 hrs) in Sprague-Dawley rat at 3 mg/kg, po or 1 mg/kg, iv measured upto 24 hrs; assay type: ADME, organism-based; set-up: time < 24 hrs, dose 3 mg/kg, route po; details: in vivo
[23] = AUC (0 to 72 hrs) in Beagle dog at 3 mg/kg, po or 1 mg/kg, iv measured upto 72 hrs; assay type: ADME, organism-based, Canis lupus familiaris; set-up: dose 3 mg/kg, time < 72 hrs, route po; details: in vivo
[24] = Plasma protein binding in Beagle dog; assay type: ADME, cell-free, Canis lupus familiaris; details: read-out: PPB (converted)
[25] = Cmax in Sprague-Dawley rat at 3 mg/kg, po or 1 mg/kg, iv measured upto 24 hrs; assay type: ADME, organism-based; set-up: dose 3 mg/kg, time < 24 hrs, route po; details: in vivo
[26] = Half life in Cynomolgus monkey at 3 mg/kg, po or 1 mg/kg, iv measured upto 72 hrs; assay type: ADME, organism-based, Macaca fascicularis; details: in vivo
[27] = AUC (0 to 72 hrs) in Cynomolgus monkey at 3 mg/kg, po or 1 mg/kg, iv measured upto 72 hrs; assay type: ADME, organism-based, Macaca fascicularis; set-up: dose 3 mg/kg, time < 72 hrs, route po; details: in vivo
[28] = Bioavailability in Cynomolgus monkey at 3 mg/kg, po or 1 mg/kg, iv measured upto 72 hrs; assay type: ADME, organism-based, Macaca fascicularis; details: in vivo
[29] = Volume of distribution in steady state in Beagle dog at 3 mg/kg, po or 1 mg/kg, iv measured upto 72 hrs; assay type: ADME, organism-based, Canis lupus familiaris; details: in vivo
[30] = Tmax in Beagle dog at 3 mg/kg, po or 1 mg/kg, iv measured upto 72 hrs; assay type: ADME, organism-based, Canis lupus familiaris; details: in vivo
[31] = Tmax in Sprague-Dawley rat at 3 mg/kg, po or 1 mg/kg, iv measured upto 24 hrs; assay type: ADME, organism-based; details: in vivo
[32] = Plasma protein binding in Cynomolgus monkey; assay type: ADME, cell-free, Macaca fascicularis; details: read-out: PPB (converted)
[33] = Plasma protein binding in Sprague-Dawley rat; assay type: ADME, cell-free; details: read-out: PPB (converted)
[34] = biological target: Voltage-gated inwardly rectifying potassium channel KCNH2 (Homo sapiens, UniProt Q12809); experiment: Inhibition of human ERG; assay type: toxicity
[35] = Bioavailability in Sprague-Dawley rat 3 mg/kg, po or 1 mg/kg, iv measured upto 24 hrs; assay type: ADME, organism-based; details: in vivo

Sequence of Calcium/calmodulin-dependent protein kinase kinase 2 (Q96RR4 whole entry): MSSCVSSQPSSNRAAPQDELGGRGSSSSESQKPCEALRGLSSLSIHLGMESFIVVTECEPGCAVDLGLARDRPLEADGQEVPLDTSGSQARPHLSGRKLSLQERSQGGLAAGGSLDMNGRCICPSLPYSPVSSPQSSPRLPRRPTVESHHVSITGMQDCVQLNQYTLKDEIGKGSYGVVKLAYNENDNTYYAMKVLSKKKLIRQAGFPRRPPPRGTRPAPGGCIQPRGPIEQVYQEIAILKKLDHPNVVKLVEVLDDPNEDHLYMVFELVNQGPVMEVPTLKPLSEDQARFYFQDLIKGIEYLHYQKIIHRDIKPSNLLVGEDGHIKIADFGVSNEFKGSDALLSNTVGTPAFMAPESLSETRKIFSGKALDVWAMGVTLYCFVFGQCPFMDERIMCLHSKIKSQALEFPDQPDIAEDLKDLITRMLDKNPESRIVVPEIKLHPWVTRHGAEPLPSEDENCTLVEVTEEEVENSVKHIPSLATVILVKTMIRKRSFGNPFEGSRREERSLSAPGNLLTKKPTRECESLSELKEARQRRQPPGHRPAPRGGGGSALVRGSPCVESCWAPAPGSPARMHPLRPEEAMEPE
Sequence of Calcium/calmodulin-dependent protein kinase kinase 1 (Q8N5S9 whole entry): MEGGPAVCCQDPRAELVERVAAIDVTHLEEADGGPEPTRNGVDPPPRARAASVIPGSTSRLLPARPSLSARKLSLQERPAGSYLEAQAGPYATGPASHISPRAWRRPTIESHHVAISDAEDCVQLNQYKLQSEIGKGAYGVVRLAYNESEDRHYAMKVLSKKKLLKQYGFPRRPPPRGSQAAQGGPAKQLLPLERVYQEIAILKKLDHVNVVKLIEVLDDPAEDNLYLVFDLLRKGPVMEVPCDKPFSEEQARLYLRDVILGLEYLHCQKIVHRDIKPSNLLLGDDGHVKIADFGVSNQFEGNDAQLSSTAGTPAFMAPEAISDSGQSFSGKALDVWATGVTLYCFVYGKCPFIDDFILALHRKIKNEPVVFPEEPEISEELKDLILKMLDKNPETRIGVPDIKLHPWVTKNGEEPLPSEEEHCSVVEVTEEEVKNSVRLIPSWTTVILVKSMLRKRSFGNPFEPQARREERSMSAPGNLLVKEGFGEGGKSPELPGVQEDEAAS
Sequence of Voltage-gated inwardly rectifying potassium channel KCNH2 (Q12809 whole entry): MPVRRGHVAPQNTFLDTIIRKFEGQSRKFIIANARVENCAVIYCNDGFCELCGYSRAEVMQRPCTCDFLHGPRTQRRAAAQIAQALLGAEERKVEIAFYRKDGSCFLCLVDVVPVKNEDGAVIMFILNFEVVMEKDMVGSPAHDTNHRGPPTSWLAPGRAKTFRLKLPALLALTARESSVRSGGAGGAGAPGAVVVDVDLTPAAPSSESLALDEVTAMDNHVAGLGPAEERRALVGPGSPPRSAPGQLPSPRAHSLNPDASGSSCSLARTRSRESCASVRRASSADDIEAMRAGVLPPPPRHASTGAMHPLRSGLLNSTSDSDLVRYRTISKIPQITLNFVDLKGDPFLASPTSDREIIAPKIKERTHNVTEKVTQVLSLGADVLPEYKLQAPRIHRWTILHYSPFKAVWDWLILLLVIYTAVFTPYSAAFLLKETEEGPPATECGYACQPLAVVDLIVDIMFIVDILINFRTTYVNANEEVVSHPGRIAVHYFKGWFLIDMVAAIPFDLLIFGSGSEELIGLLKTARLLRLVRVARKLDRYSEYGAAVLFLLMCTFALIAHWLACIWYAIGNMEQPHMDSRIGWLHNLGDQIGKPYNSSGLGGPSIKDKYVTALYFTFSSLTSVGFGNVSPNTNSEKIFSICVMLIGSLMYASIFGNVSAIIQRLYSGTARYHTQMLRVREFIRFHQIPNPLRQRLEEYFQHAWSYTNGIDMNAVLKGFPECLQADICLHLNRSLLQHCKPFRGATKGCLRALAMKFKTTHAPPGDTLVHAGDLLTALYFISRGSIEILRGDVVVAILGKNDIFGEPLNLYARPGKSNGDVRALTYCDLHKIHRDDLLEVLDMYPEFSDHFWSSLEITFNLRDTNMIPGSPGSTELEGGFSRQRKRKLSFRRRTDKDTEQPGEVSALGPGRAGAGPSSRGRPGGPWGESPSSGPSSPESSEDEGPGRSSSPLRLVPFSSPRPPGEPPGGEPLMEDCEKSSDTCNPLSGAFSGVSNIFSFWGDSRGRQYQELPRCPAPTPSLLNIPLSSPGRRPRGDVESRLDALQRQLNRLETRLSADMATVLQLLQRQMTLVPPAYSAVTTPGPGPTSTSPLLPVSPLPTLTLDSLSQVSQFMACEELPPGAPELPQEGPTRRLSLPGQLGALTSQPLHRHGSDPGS
Sequence of Von Hippel-Lindau disease tumor suppressor/Elongin B/Elongin C (P40337 whole entry, looked up, the tested form may be a part): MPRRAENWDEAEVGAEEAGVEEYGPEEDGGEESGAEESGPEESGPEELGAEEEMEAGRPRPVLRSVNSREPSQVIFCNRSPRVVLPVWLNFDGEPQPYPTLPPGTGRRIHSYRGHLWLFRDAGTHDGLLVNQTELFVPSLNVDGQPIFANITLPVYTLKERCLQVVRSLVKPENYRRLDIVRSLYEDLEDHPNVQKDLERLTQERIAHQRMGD

- Kd [3]: 130 nM
- Tmax [4]: 0.5 h
- half-life [5]: 8.1 h
- IC50 [2]: 94 nM
- AUC(0-t) at 72 h [6]: 3.96 µM·h
- AUC(0-t) at 72 h [7]: 39.9 µM·h
- bioavailability [8]: 100%
- bioavailability [9]: 18%
- Tmax [10]: 0.5 h
- Cmax [11]: 7.18 µM
- Cmax [12]: 3.21 µM
- half-life [13]: 24 h
Structure (SMILES): Cc1ncsc1-c1ccc(CNC(=O)[C@@H]2C[C@@H](O)CN2C(=O)[C@@H](NC(=O)CCCCCCCCCOc2ccc3c(-c4ccc(C(=O)O)c(C5CCCC5)c4)ncnc3c2)C(C)(C)C)cc1
- EC50 (A-427): > 8000 nM

- EC50 [1]: 620 nM
Structure (SMILES): Cc1ncsc1-c1ccc(CNC(=O)[C@@H]2C[C@@H](O)CN2C(=O)[C@@H](NC(=O)CCCCCCCCOc2ccc3c(-c4ccc(C(=O)O)c(C5CCCC5)c4)ncnc3c2)C(C)(C)C)cc1

- EC50 [1]: 2000 nM
Structure (SMILES): Cc1ncsc1-c1ccc(CNC(=O)[C@@H]2C[C@@H](O)CN2C(=O)[C@@H](NC(=O)CCCCCCOc2ccc3c(-c4ccc(C(=O)O)c(C5CCCC5)c4)ncnc3c2)C(C)(C)C)cc1

- EC50 [1]: 530 nM
Structure (SMILES): Cc1ncsc1-c1ccc(CNC(=O)[C@@H]2C[C@@H](O)CN2C(=O)[C@@H](NC(=O)CCCCCCCCCCOc2ccc3c(-c4ccc(C(=O)O)c(C5CCCC5)c4)ncnc3c2)C(C)(C)C)cc1

- IC50 [2]: 11 nM
Structure (SMILES): CCOc1cc2ncnc(-c3ccc(C(=O)O)c(C(C)C)c3)c2cc1F

The remaining lines, values behind:

Structure (SMILES): Cc1ncsc1-c1ccc(CNC(=O)[C@@H]2C[C@@H](O)CN2C(=O)[C@@H](NC(=O)CCCCCCCOc2ccc3c(-c4ccc(C(=O)O)c(C5CCCC5)c4)ncnc3c2)C(C)(C)C)cc1
- EC50 [1]: 510 nM

Structure (SMILES): CCOc1cc2ncnc(-c3ccc(C(=O)O)c(C4CCCC4)c3)c2cc1F
- IC50 [2]: 54 nM

Structure (SMILES): CCOc1ccc2c(-c3ccc(C(=O)O)c(C(C)C)c3)ncnc2c1
- IC50 [2]: 47 nM

Structure (SMILES): CCOc1cc(F)c2c(-c3ccc(C(=O)O)c(C(C)C)c3)ncnc2c1
- fraction unbound at 72 h [14]: 0.003
- Tmax [15]: 1.7 h
- Cmax [16]: 28 µM
- half-life [17]: 11 h
- half-life [18]: 4.9 h
- Cmax [19]: 30 µM
- bioavailability [20]: 68%
- Vdss [21]: 0.57 L/kg
- AUC(0-t) at 24 h [22]: 58 µM·h
- AUC(0-t) at 72 h [23]: 79 µM·h
- fraction unbound [24]: 0.02
- Cmax [25]: 19 µM
- half-life [26]: 20 h
- AUC(0-t) at 72 h [27]: 282 µM·h
- IC50 [2]: 12 nM
- bioavailability [28]: 95%
- Vdss [29]: 0.44 L/kg
- Tmax [30]: 0.5 h
- Tmax [31]: 3 h
- fraction unbound [32]: 0.007
- fraction unbound [33]: 0.012
- IC50 [34]: > 30000 nM
- bioavailability [35]: 80%

Structure (SMILES): Cc1ncsc1-c1ccc(CNC(=O)[C@@H]2C[C@@H](O)CN2C(=O)[C@@H](N(C)C(=O)CCCCCCCCCOc2ccc3c(-c4ccc(C(=O)O)c(C5CCCC5)c4)ncnc3c2)C(C)(C)C)cc1
- EC50 [1]: > 10000 nM

Structure (SMILES): Cc1ncsc1-c1ccc(CNC(=O)[C@@H]2C[C@@H](O)CN2C(=O)[C@@H](NC(=O)CCCCCOc2ccc3c(-c4ccc(C(=O)O)c(C5CCCC5)c4)ncnc3c2)C(C)(C)C)cc1
- EC50 [1]: > 10000 nM

Structure (SMILES): Cc1ncsc1-c1ccc(CNC(=O)[C@@H]2C[C@@H](O)CN2C(=O)[C@@H](NC(=O)CCCCCCCCCCCOc2ccc3c(-c4ccc(C(=O)O)c(C5CCCC5)c4)ncnc3c2)C(C)(C)C)cc1
- EC50 [1]: 4500 nM
